B1: Chemokine (C-C motif) ligand 3 (protein, listed as Homo sapiens)
chain: MQVSTAALAVLLCTMALCNQFSASLAADTPTACCFSYTSRQIPQNFIADYFETSSQCSKPGVIFLTKRSRQVCADPSEEWVQKYVSDLELSA
notes: class 1 immunomodulator

Experiments:
P. aeruginosa PA103 = test: Wound model of infection with PA103 in diabetic db/db mice; type: in vivo; details: for infection control against P. aeruginosa in diabetic wounds infected with PA103: 10^6 PA103, topical at time of surgery & infection, 24 h, FIG. 2D
Experimental: The implant model of infection in C57B mice was used for 10^6 PA103 (FIG. 2A) or 10^6 USA300 MRSA (FIG. 2C). The wound model of infection was used for 10^6 PA103 in C57BL mice (FIG. 2B) or diabetic db/db mice (FIG. 2D). Infection was carried out at the time of surgery by adding bacteria directly to the surgical sites. Immunomodulators, namely, LPS (10 ng or 100 ng), fMLP (10 ng or 100 ng), CCL3 (1 μg) were added topically at the surgical sites at the time of surgery & infection. GM-CSF (10 μg/kg), tobramycin (Tob at 3.5 mg/kg), and vancomycin (40 mg/kg) were added systemically by i.p. injection 1 h before surgical implantation and infection. Infection levels were determined 24 h following infection (N>4 animals/group; NS=not significant, * p<0.01, ** p<0.001, ***p<0.0001 One-way ANOVA).
We assessed these immunomodulators for their ability to control wound and/or implant SS's in normal (C57BL/6) or diabetic (db/db) mice. We acknowledge that diabetic individuals are not as immunocompromised as other immunocompromised patient groups. […] All immunomodulators were added locally at the surgical sites at the time of infection, except GM-CSF (10 μg/kg) which was administered systemically by i.p. injection 1 h prior to surgery per its FDA-approved route of delivery. […] CCL3 and GM-CSF are also tested using the implant model of infection. Here, we tested CCL3 and GM-CSF in the wound model of infection in C57B mice.
Implant surgery and wound surgery and surgical site infection are performed according to the following method. On the day of surgery, all mice are anesthetized by an intraperitoneal injection of a ketamine/xylazine mixture (90 mg/kg ketamine+5 mg/kg xylazine for mice). The back of the animals is shaved using an electric shave and scrubbed with alcohol swabs 3 times, a topical antiseptic solution (Hibiclens; chlorhexidine gluconate) is applied to the skin. The surgical procedures are performed with sterile instruments, sterile surgical gloves, and aseptic techniques as follows. For wound surgical procedure, a sterile biopsy punch (5-7 mm diameter) is used to punch through the full thickness of the back skin below the shoulder blades. Four 5-7 mm skin wounds are made on the back of each mouse. Wounds placed in this area cannot be reached by the animals and therefore are protected from self-licking. For implant surgery, a 4-mm long lateral skin incision is made on the upper back, and the skin is retracted. The space above the muscle is opened using blunt dissection with fine forceps, to create a rostral fascia indentation. Then, immunomodulators at indicated concentrations (in a 20 μL volume) or PBS control are injected into the fascia indentation. After a 1 min wait for fluid to be absorbed, a disc implant, (1.87 mm diameter, 0.68 mm thick (Part # VP 724F-1)), is inserted in the fascia indentation. […] For implant surgery, the fascia indentation is left open, while the skin is closed with 4-0 nylon sutures. The fascia above the back muscles in mice is too thin and fragile to allow it to be sutured closed around the implant.

leukocytes = test: Leukocyte migration (H&E staining) and activation (MPO ELISA) in normal wound; type: in vivo, C57B mice; details: for leukocyte migration and neutrophil activation in a normal wound: compared to PBS, FIGS. 10A-10D
Source text: FIGS. 10A-10D illustrate that immunomodulatory treatment enhances leukocyte migration and neutrophil activation in a normal wound. (10A, 10B—CCL3, 10C—LPS, fMLF, 10D—GM-CSF), N=4; Significance determined as compared to PBS *<0.05, **p<0.01, ***p<0.001.
We next examined the impact of CCL3 topical treatment on leukocyte migration by H&E staining, and on leukocyte activation by myeloperoxidase (MPO) measurements by ELISA. (MPO is primarily used as a marker for neutrophil activation but it can also be expressed to lesser extent in macrophages).

inflammatory cytokines = test: Production of inflammatory cytokines in normal wound; type: in vivo, mice
Experimental: FIGS. 7A and 7B illustrate that CCL3 treatment increases the production of inflammatory cytokines in a normal wound. N=4; Significance determined as compared to PBS *<0.05, **p<0.01, ***p<0.001.
FIGS. 8A and 8B illustrate that LPS and fMLP treatment increases the production of inflammatory cytokines in a normal wound. N=4; LPS (10 ng) and fMLP (100 nM) directly added to wounds at the time of infection after wounding. Significance determined as compared to PBS *<0.05, **p<0.01.
Tissue-Tek O.C.T. (Sakura); Lysing Matrix D (MP Biomedicals); Collagenase (Roche Diagnostics), Hematoxylin and eosin (H&E); DNase 1 (Sigma-Aldrich); Hyluronidase, Streptozotocin (Sigma-Aldrich); Trizol (Invitrogen); CD45 antibody (eBioscience, Inc); Ly6C; Ly6G; CD11b; CD3 (BioLegend); CD68; GAPDH (Sigma-Aldrich). Ly6G and CD68 (Abcam); Primer pairs for GAPDH were from Qiagen. Masson's trichrome stain (Sigma-Aldrich); Picrosirius red (Abcam); Fibronectin (Chemicon International); Insulin slow-release capsules (Linplant; LinShin, Toronto, Canada) CCL3 (R&D Systems) fMLP (Sigma-Aldrich); II-1β ELISA (R&D Systems); TNF-α ELISA (R&D Systems).

[1] = LPS (10 ng) and fMLP (100 nM) directly added to wounds at the time of infection after wounding, FIGS. 8A and 8B
[2] = topical CCL3 to C57B wounds, regardless of infection, FIG. 10A, 10B

Molecule | infection control against P. aeruginosa in diabetic wounds infected with PA103 (P. aeruginosa PA103; db/db mice) | leukocyte migration and neutrophil activation in a normal wound (leukocytes) | production of inflammatory cytokines in a normal wound (inflammatory cytokines; [1]) | antimicrobial defenses in diabetic wounds against P. aeruginosa (P. aeruginosa PA103; compared to PBS, FIG. 13A) | infection control in diabetic wounds (P. aeruginosa PA103; P. aeruginosa PA103 10^3, compared to PBS, FIG. 11A) | infection control in diabetic animals, compared with LPS or fMLP (P. aeruginosa PA103; db/db mice, PA103, FIG. 2D) | leukocytes' activation in the wound (myeloperoxidase, MPO, by ELISA) (leukocytes; [2]) | leukocytes' migration in the wound (H&E staining) (leukocytes; [2]) | production of inflammatory cytokines in a normal wound (inflammatory cytokines; CCL3 treatment, compared to PBS, FIGS. 7A and 7B)
CSCC[C@H](NC=O)C(=O)N[C@@H](CC(C)C)C(=O)N[C@@H](Cc1ccccc1)C(=O)O [fMLP, N-Formylmethionyl-leucyl-phenylalanine] | significantly improved | enhances | increases | – | – | – | – | – | –
lipopolysaccharide [LPS] | significantly improved | enhances | increases | increases | – | – | – | – | –
B1 | significantly improved | enhances | – | – | increases | significantly more effective | significant increases | significant increases | increases

Reference: patent publication US20210268070A1, “Use of Immunomodulators to Control Infection and Stimulate Healing in Normal and Diabetic Wounds” (priority 2018, published 2021)
